Assay results from patent US11110102B2, “Antifungal agents used in combination” (Scynexis, Inc., priority 2017, dated 2021).
“And” between values parts separate entries of the source, which are not always exact repeats. Equal values may be shown once. Read-outs that look alike come from different tables or passages of the source.

What was measured:
A. fumigatus MRL #28382 = test: Checkerboard combination MIC testing; type: cell-based, Aspergillus fumigatus; conditions: A. fumigatus MRL 28382 (wild-type), read at 48 hours, duplicate; for MIC: Aspergillus fumigatus, SCY078, 48 h
From the text: (§1) To determine the type of interaction between a representative compound of the enfumafungin derivatives (SCY-078) with several antifungal agents against Aspergillus fumigatus, the most frequent mold causing invasive disease in humans, the checkerboard method was used. The citrate salt of the compound was used in the studies.
(§2) The checkerboard method involves the determination of percent growth inhibition of fungal cells in the presence of different combinations of drugs. Percent growth inhibition is calculated relative to growth in control wells which contain only cells and no drug. The assay was performed in 96-well microplates in which each row and each column contained twofold serial dilutions of drug A and drug B at concentrations ranging from 0 to slightly higher than their minimum inhibitory concentration (MIC). […] Then the inoculum was added to each well and the growth was evaluated after 48 hrs incubation to determine the first well in which growth was inhibited. The checkerboard-based determination of MICs of antifungal agents in combination was followed by further analysis employing the nonparametric fractional inhibitory concentration index (FICI), which is defined by the following equation:
(§3) [formula] where MIC-A and MIC-B are the MICs of drugs A and B, respectively.
(§4) Each drug was initially diluted in either sterile, distilled water or in DMSO, depending on whether the drug was water-soluble or water-insoluble, respectively.
(§5) Stock solution of SCY-078 was prepared in DMSO at 200 times the concentration desired for use in the drug plates. Serial dilutions of stock solution were conducted in DMSO to obtain eleven 2-fold dilutions of the drug. The SCY-078 solution was then diluted to 4 times the desired concentration in RPMI-1640 medium so that the DMSO would not limit growth of the organism and so that the quantity of DMSO was the same for every dilution.
(§6) Two 96-well plates are needed to conduct a combination test. Using a multichannel pipette, 50 μl of the lowest concentration of the first drug (Drug A) was added to each well of column 1 of the first plate (plate A) and column 1 of the second plate (plate B; rows A-D). Then, 50 μl of the next highest working dilution of Drug A was added to each well in column 2, continuing with dilutions until all columns 1-11 were filled. Column 12 was left empty. 50 μl of the lowest concentration of Drug B was added to each well in Row D of plate B. 50 μl of the next highest working dilution of Drug B was added to each well in row C of plate B, continuing with dilutions until all rows through row B of plate A were filled.
(§7) Following the above, 100 μl of organism inoculum was added to every well. The plates were then incubated for 48 hours and visually read after incubation.
(§8) The objective of the study was to determine whether the combination of SCY-078 with voriconazole, isavuconazole, or amphotericin B would result in a combined in vitro antifungal activity exceeding the sum of the activities of each drug alone. Combination MIC testing was performed using the checkerboard assay described above.
(§9) Initial MIC determinations of the individual antifungals were performed according to the Clinical and Laboratory Standards Institute (CLSI) M38-A2 standard for the susceptibility testing of filamentous fungi.
(§10) Combination MIC testing was performed using a checkerboard test method according to the Center for Medical Mycology SOP A11.3. The checkerboard combination test method is a modification of the microdilution antifungal susceptibility test wherein two test compounds are combined in varying concentrations to determine whether they have synergistic, antagonistic, or no effect on the respective MIC values.
(§11) Antifungals were serially diluted two-fold in RPMI medium to produce eleven concentrations each and were combined in wells of a microtiter plate. Two rows consisting of serial dilutions of each individual drug were included. All combination testing was conducted in duplicate. […]

A. fumigatus MRL #20438 = test: Checkerboard combination MIC testing; type: cell-based, Aspergillus fumigatus; conditions: A. fumigatus MRL 20438 (wild-type), read at 48 hours, duplicate; for MIC per drug in Combination: SCY-078 combined with isavuconazole; for MIC: Aspergillus fumigatus, SCY078, 48 h
From the text: as §1, §2, §3, §4, §5, §6, §7, §8, §9, §10, §11

A. fumigatus MRL #28383 = test: Checkerboard combination MIC testing; type: cell-based, Aspergillus fumigatus; conditions: A. fumigatus MRL 28383 (azole-resistant), read at 48 hours, duplicate; for MIC: Aspergillus fumigatus, SCY078, 48 h, drug alone
From the text: as §1, §2, §3, §4, §5, §6, §7, §8, §9, §10, §11

A. fumigatus MRL #28378 = test: Checkerboard combination MIC testing; type: cell-based, Aspergillus fumigatus; conditions: A. fumigatus MRL 28378 (wild-type), read at 48 hours, duplicate; for MIC per drug in Combination: SCY-078 combined with isavuconazole; for MIC: Aspergillus fumigatus, SCY078, 48 h
From the text: as §1, §2, §3, §4, §5, §6, §7, §8, §9, §10, §11

A. fumigatus MRL #28401 = test: Checkerboard combination MIC testing; type: cell-based, Aspergillus fumigatus; conditions: A. fumigatus MRL 28401 (wild-type), read at 48 hours, duplicate; for MIC per drug in Combination: SCY-078 combined with isavuconazole; for MIC: Aspergillus fumigatus, SCY078, 48 h
From the text: as §1, §2, §3, §4, §5, §6, §7, §8, §9, §10, §11

Solubility in water = type: physicochemical
From the text: as §4

[1] = SCY-078 combined with isavuconazole
[2] = drug alone, SCY-078/isavuconazole test, read-out: MIC per drug Alone
[3] = SCY-078/isavuconazole test, read-out: MIC per drug Alone
[4] = drug alone, SCY-078/amphotericin B test
[5] = drug alone, SCY-078/isavuconazole test
[6] = drug alone, SCY-078/amphotericin B test, read-out: MIC Alone
[7] = drug alone, SCY-078/voriconazole test, read-out: MIC Alone
[8] = SCY-078 combined with amphotericin B
[9] = SCY-078 combined with voriconazole
[10] = drug alone, SCY-078/voriconazole test

C[C@@H](c1nc(-c2ccc(C#N)cc2)cs1)[C@](O)(Cn1cncn1)c1cc(F)ccc1F [Isavuconazole, isavuconazole]
MIC per drug in Combination (A. fumigatus MRL #28382; [1]): 0.25 µg/mL | MIC per drug in Combination (A. fumigatus MRL #20438): 0.5 µg/mL | MIC (A. fumigatus MRL #20438; [2]): 1 µg/mL | MIC per drug in Combination (A. fumigatus MRL #28383; [1]): >8 µg/mL and 4 µg/mL | MIC (A. fumigatus MRL #28383; [3]): > 8 µg/mL | MIC per drug in Combination (A. fumigatus MRL #28378): 0.125 µg/mL and 0.25 µg/mL | MIC (A. fumigatus MRL #28378; [2]): 1 µg/mL | MIC per drug in Combination (A. fumigatus MRL #28401): 0.25 µg/mL | MIC (A. fumigatus MRL #28401; [2]): 1 µg/mL

CC(C)[C@@H](C)[C@@]1(C)CC[C@]2(C)[C@H]3CC[C@@H]4[C@@]5(COC[C@@]4(C)[C@@H](OC[C@](C)(N)C(C)(C)C)[C@H](n4ncnc4-c4ccncc4)C5)C3=CC[C@@]2(C)[C@@H]1C(=O)O [SCY-078, (1S,4aR,6aS,7R,8R,10aR,10bR,12aR,14R,15R)-15-[[(2R)-2-amino-2,3,3-trimethylbutyl]oxy]-8-[(1R)-1,2-dimethylpropyl]-14-[5-(4-pyridinyl)-1H-1,2,4-triazol-1-yl]-1,6,6a,7,8,9,10,10a,10b,11,12,12a-dodecahydro-1,6a,8,10a-tetramethyl-4H-1,4a-propano-2H-phenanthro[1,2-c]pyran-7-carboxylic acid]
Solubility in water (Solubility in water): not soluble in water | MIC Alone (A. fumigatus MRL #28382; [4]): 8 µg/mL | MIC per drug Alone (A. fumigatus MRL #28382; [5]): 4 µg/mL | MIC (A. fumigatus MRL #28382; [6]): 4 µg/mL | MIC (A. fumigatus MRL #28382; [2]): 8 µg/mL | MIC (A. fumigatus MRL #28382; [7]): 8 µg/mL | MIC in Combination (A. fumigatus MRL #20438; [8]): 0.016 µg/mL | MIC per drug in Combination (A. fumigatus MRL #20438): 0.016 µg/mL | MIC in Combination (A. fumigatus MRL #20438; [9]): 0.125 µg/mL and 0.25 µg/mL | MIC Alone (A. fumigatus MRL #20438; [10]): 4 µg/mL | MIC (A. fumigatus MRL #20438; [6]): 4 µg/mL | MIC (A. fumigatus MRL #20438; [2]): 4 µg/mL | MIC (A. fumigatus MRL #20438; [7]): 8 µg/mL | MIC in Combination (A. fumigatus MRL #28383; [8]): 0.016 µg/mL | MIC in Combination (A. fumigatus MRL #28383; [9]): 0.031 µg/mL | MIC (A. fumigatus MRL #28383; SCY-078/amphotericin B test, read-out: MIC Alone): 4 µg/mL | MIC (A. fumigatus MRL #28383; [3]): 4 µg/mL | MIC (A. fumigatus MRL #28383; SCY-078/voriconazole test, read-out: MIC Alone): 8 µg/mL | MIC in Combination (A. fumigatus MRL #28378; [8]): 0.016 µg/mL | MIC per drug in Combination (A. fumigatus MRL #28378): 0.125 µg/mL | MIC in Combination (A. fumigatus MRL #28378; [9]): 0.5 µg/mL | MIC Alone (A. fumigatus MRL #28378; [10]): 4 µg/mL | MIC (A. fumigatus MRL #28378; [6]): 4 µg/mL | MIC (A. fumigatus MRL #28378; [2]): 4 µg/mL | MIC (A. fumigatus MRL #28378; [7]): 8 µg/mL | MIC in Combination (A. fumigatus MRL #28401; [8]): 0.016 µg/mL and 0.031 µg/mL | MIC per drug in Combination (A. fumigatus MRL #28401): 0.25 µg/mL and 0.5 µg/mL | MIC in Combination (A. fumigatus MRL #28401; [9]): 0.25 µg/mL and 0.125 µg/mL | MIC Alone (A. fumigatus MRL #28401; [4]): 8 µg/mL | MIC per drug Alone (A. fumigatus MRL #28401; [5]): 8 µg/mL | MIC (A. fumigatus MRL #28401; [6]): 4 µg/mL | MIC (A. fumigatus MRL #28401; [2]): 4 µg/mL | MIC (A. fumigatus MRL #28401; [7]): 8 µg/mL
